The test system of one data set is HCT116 (colon carcinoma). The data set can be described thus: in vitro antiproliferative activity, MTT assay, HCT116. The format is cell-based. As to conditions: Homo sapiens, HCT-116, concentration that causes 50% growth inhibition, 72 h. The method, then:
(§1) The experiments were carried out on several human cell lines, as follows: HCT116 (colon carcinoma), H 460 (lung carcinoma) and MCF-7 (breast carcinoma), HeLa (cervical carcinoma), human T-lymphocyte cells (CEM) and HMEC-1 (dermal microvascular endothelial cell) according to the previously published experimental procedure. Briefly, the cells were grown in DMEM medium with the addition of 10% foetal bovine serum (FBS), 2 mM L-glutamine, 100 U/mL penicillin and 100 µg/mL streptomycin, and cultured as monolayers at 37 °C in a humidified atmosphere with 5% CO2. HCT116, H 460 and MCF-7 cells were seeded at 2 × 10^3 cells/well in a standard 96-well microtiter plates and left to attach for 24 h. Next day, test compound was added in five serial 10-fold dilutions. The cell growth rate was evaluated after 72 h of incubation, using MTT assay. Obtained results were expressed as IC50 value which stands for the concentration of the compound necessary for 50% of growth inhibition. The IC50 values were calculated from concentration-response curve using linear regression analysis by fitting the test concentrations that give percentage of growth (PG) values above and below the reference value (i.e., 50%). However, if for a given cell line all of the tested concentrations produce PGs exceeding the respective reference level of effect (e.g., PG value of 50), then the highest tested concentration is assigned as the default value, which is preceded by a “>” sign. Each test was performed in quadruplicate in at least two individual experiments.
On the technique in general: Tetrazolium assays rely on reduction of a dye to a coloured formazan, in cell work by metabolically active cells.

Another data set has as its system MCF-7 (breast carcinoma). The data set can be described thus: in vitro antiproliferative activity, MTT assay, MCF-7. The format is cell-based, human. The note with it: for IC50: Homo sapiens, MCF7, concentration that causes 50% growth inhibition, 72 h, MTT assay. The protocol: as §1
The subject of the next data set is H 460 (lung carcinoma). Briefly: in vitro antiproliferative activity, MTT assay, H 460. The data set is classed as cell-based. The note with it: Homo sapiens, NCI-H460, concentration that causes 50% growth inhibition, 72 h. The protocol: as §1
For data set [1], the system named is human T-lymphocyte cells (CEM). Briefly: cell proliferation, Coulter counter, CEM. As to conditions: 96 h, cells counted in a Coulter counter. The format is cell-based. The protocol:
as §1
(§2) HeLa and HMEC-1 cells were seeded in 48-well plates at 10,000 cells/well. After 24 h, different concentrations of the compounds were added. After 3 days of incubation, the cells were trypsinized and counted in a Coulter counter. Suspension cells (human T-cell leukaemia Cem cells) were seeded in 96-well plates at 60,000 cells/well in the presence of different concentrations of compounds, allowed to proliferate for 96 h, and counted in a Coulter counter. The 50% inhibitory concentration (IC50) was defined as the compound concentration required reducing cell proliferation by 50%.

In data set [2] the test system is HeLa (cervical carcinoma). The data set can be described thus: cell proliferation, Coulter counter, HeLa. The note with it: Homo sapiens, 72 h, 3 days, cells counted in a Coulter counter. The format is cell-based. The method, then: as §1, §2
Data set [3] relates to HMEC-1 (dermal microvascular endothelial cell). The data set can be described thus: cell proliferation, Coulter counter, HMEC-1 (non-tumour). The format is cell-based. The note with it: Homo sapiens, HMEC-1, 72 h; non-tumour cell line; 3 days, cells counted in a Coulter counter. The method, then: as §1, §2

SMILES strings stand for the structures.

On to `Cc1cc(=O)oc2cc(-n3cc(-c4ccccc4)nn3)ccc12` [Compound 2a, 4-Methyl-7-(4-phenyl-1H-1,2,3-triazol-1-yl)-2H-chromen-2-one], for which the melting point (commonly the temperature of the solid-liquid transition) lay within 267 to 270 °C. Besides, in the data set on HCT116 (colon carcinoma), the concentration for half-maximal inhibition (IC50) (in general, the midpoint of a concentration-inhibition curve) is not below 100 µM. This compound yielded an IC50 in the data set with MCF-7 (breast carcinoma) of 23 ± 9 µM. Moreover, the half-inhibitory concentration (IC50) in the data set with H 460 (lung carcinoma) is not below 100 µM. The same compound registered an IC50 in data set [1] of more than 100 µM. In addition, the IC50 in data set [2] is more than 100 µM. The same compound displayed a half-inhibitory concentration (IC50) in data set [3] of more than 100 µM.
As to `Cc1cc(=O)oc2cc(-n3cc(-c4ccc(N)cc4)nn3)ccc12` [Compound 2b, 7-[4-(4-Aminophenyl)-1H-1,2,3-triazol-1-yl]-4-methyl-2H-chromene-2-one], the melting point was in the range of 269 to 273 °C. In addition, in the data set on HCT116 (colon carcinoma), the IC50 was determined as 3 ± 2 µM. In addition, in the data set with MCF-7 (breast carcinoma), the midpoint of inhibition, the IC50, lay at 0.6 ± 0.1 µM. Also, the IC50 with H 460 (lung carcinoma) is not below 100 µM. In addition, the IC50 in data set [1] is more than 100 µM. This compound also registered an IC50 in data set [2] of more than 100 µM. In data set [3], this compound yielded an IC50 of more than 100 µM.
Compound `Cc1cc(=O)oc2cc(-n3cc(-c4ccc(N(C)C)cc4)nn3)ccc12` [Compound 2c, 7-[4-(4-(Dimethylamino)phenyl]-1H-1,2,3-triazol-1-yl)-4-methyl-2H-chromen-2-one] came in with a melting point of 275 to 279 °C. In the data set with HCT116 (colon carcinoma), this compound registered a half-maximal inhibitory concentration (IC50) not below 100 µM. Besides, half-maximal inhibition in the data set on MCF-7 (breast carcinoma) (IC50) was put at 21 ± 0.03 µM. In the data set on H 460 (lung carcinoma), the IC50 is not below 100 µM. The same compound displayed an IC50 in data set [1] of 58 ± 7 µM. For the same compound, in data set [2], the IC50 was determined as 88 ± 8 µM. Moreover, the IC50 in data set [3] was more than 100 µM.
In the case of `Cc1ccc(-c2cn(-c3ccc4c(C)cc(=O)oc4c3)nn2)cc1` [Compound 2d, 4-Methyl-7-[4-(p-tolyl)-1H-1,2,3-triazol-1-yl]-2H-chromen-2-one], the melting point lay within 269 to 272 °C. In the data set on HCT116 (colon carcinoma), this compound showed a half-maximal inhibitory concentration (IC50) of 36 ± 3 µM. For the same compound, in the data set with MCF-7 (breast carcinoma), the “activity against MCF-7 cell line (in words)” value (from here on “activity”) is reported as “devoid of activity” and the concentration for half-maximal inhibition (IC50) was not below 100 µM. The compound further gave an IC50 with H 460 (lung carcinoma) not below 100 µM.
In turn, `Cc1cc(=O)oc2cc(-n3cc(-c4ccc(Br)cc4)nn3)ccc12` [Compound 2e, 7-[4-(4-Bromophenyl)-1H-1,2,3-triazol-1-yl]-4-methyl-2H-chromen-2-one] gave a melting point of 280 to 285 °C. Further, half-maximal inhibition with HCT116 (colon carcinoma) (IC50) was put at 27 ± 0.06 µM. This compound also returned a concentration for half-maximal inhibition (IC50) in the data set with MCF-7 (breast carcinoma) of 32 ± 4 µM. The concentration for half-maximal inhibition (IC50) in the data set with H 460 (lung carcinoma) is 85 ± 13.5 µM.
`COc1ccc(-c2cn(-c3ccc4c(C)cc(=O)oc4c3)nn2)cc1` [Compound 2f, 7-[4-(4-Methoxyphenyl)-1H-1,2,3-triazol-1-yl]-4-methyl-2H-chromen-2-one] gave a melting point of 266 to 270 °C. The same compound came in with an IC50 in the data set on HCT116 (colon carcinoma) of 22 ± 21 µM. Also, in the data set with MCF-7 (breast carcinoma), the “activity” value is listed as “devoid of activity” and the IC50 was not below 100 µM. Moreover, the IC50 with H 460 (lung carcinoma) is not below 100 µM.
Turning to `Cc1cc(=O)oc2cc(-n3cc(-c4ccc(C=O)cc4)nn3)ccc12` [Compound 2g, 4-[1-(4-Methyl-2-oxo-2H-chromen-7-yl]-1H-1,2,3-triazol-4-yl)benzaldehyde], the melting point fell in the range of 282 to 287 °C. The compound also showed an IC50 in the data set on HCT116 (colon carcinoma) of 77 ± 7 µM. Moreover, in the data set with MCF-7 (breast carcinoma), the “activity” value is on record as “devoid of activity” and the 50% inhibitory concentration (IC50) is not below 100 µM. Besides, the IC50 in the data set with H 460 (lung carcinoma) is not below 100 µM.
Consider `Cc1cc(=O)oc2cc(-n3cc(-c4cccc(-c5cn(-c6ccc7c(C)cc(=O)oc7c6)nn5)c4)nn3)ccc12` [Compound 2h, 7,7′-(4,4′-(1,3-Phenylene)bis(1H-1,2,3-triazole-4,1-diyl))bis(4-methyl-2H-chromen-2-one)], for which the concentration for half-maximal inhibition (IC50) in the data set with HCT116 (colon carcinoma) was 9 ± 3 µM; in the data set with MCF-7 (breast carcinoma), 0.3 ± 0.2 µM; in the data set with H 460 (lung carcinoma), 29 ± 3 µM; in data set [1], more than 100 µM; in data set [2], more than 100 µM; in data set [3], more than 100 µM.
For `Cc1cc(=O)oc2cc(-n3cc(-c4ccc(-c5cn(-c6ccc7c(C)cc(=O)oc7c6)nn5)cc4)nn3)ccc12` [Compound 2i, 7,7′-(4,4′-(1,4-Phenylene)bis(1H-1,2,3-triazole-4,1-diyl))bis(4-methyl-2H-chromen-2-one)], the melting point lay in the range of 255 to 261 °C. In the data set with HCT116 (colon carcinoma), the IC50 was determined as 7 ± 3 µM. The compound also returned a half-inhibitory concentration (IC50) in the data set with MCF-7 (breast carcinoma) of 1 ± 0.1 µM. Further, the IC50 in the data set with H 460 (lung carcinoma) was not below 100 µM. Besides, the IC50 in data set [1] was more than 100 µM. In data set [2], this compound yielded an IC50 not below 100 µM. The compound further displayed an IC50 in data set [3] of more than 100 µM.
`Cc1cc(=O)oc2cc(-n3cc(CSc4nc5ccccc5s4)nn3)ccc12` [Compound 4a, 7-{{4-[(Benzo[d]thiazol-2-yl)thio]methyl}-1H-1,2,3-triazol-1-yl}-4-methyl-2H-chromen-2-one] displayed a melting point of 186 to 192 °C. This compound also came in with a half-inhibitory concentration (IC50) in the data set on HCT116 (colon carcinoma) of 31 ± 6 µM. The same compound came in with a half-maximal inhibitory concentration (IC50) with MCF-7 (breast carcinoma) of 3 ± 2 µM. Besides, inhibition in the data set on H 460 (lung carcinoma) was half-maximal at 21 ± 7 µM (IC50). This compound also had an IC50 in data set [1] not below 100 µM. In data set [2], this compound displayed an IC50 of 79 ± 36 µM. In addition, in data set [3], the half-inhibitory concentration (IC50) worked out at 66 ± 4 µM.
For `Cc1cc(=O)oc2cc(-n3cc(CSc4nc5ccccc5[nH]4)nn3)ccc12` [Compound 4b, 7-{4-{[(1H-Benzo[d]imidazol-2-yl)thio]methyl}-1H-1,2,3-triazol-1-yl}-4-methyl-2H-chromen-2-one], the melting point was 237 to 244 °C. Also, in the data set with HCT116 (colon carcinoma), half-maximal inhibition (IC50) required 31 ± 5 µM. Half-maximal inhibition in the data set on MCF-7 (breast carcinoma) (IC50) was put at 19 ± 3 µM. The same compound displayed a half-maximal inhibitory concentration (IC50) in the data set on H 460 (lung carcinoma) of 23 ± 10 µM. The IC50 in data set [1] came out at 74 ± 37 µM. Besides, 25 µM corresponded to half-maximal inhibition in data set [2] (IC50). In data set [3], this compound registered an IC50 of 69 ± 8 µM.
`O=c1[nH]cc(F)c(=O)[nH]1` [Compound 5-FU, 5-fluorouracil, reference compound]: the results for the IC50 in the data set on HCT116 (colon carcinoma), with MCF-7 (breast carcinoma) and in the data set on H 460 (lung carcinoma) were 4 ± 1 µM, 14 ± 0.3 µM and 3 ± 0.3 µM, respectively.
As to `COc1cc([C@@H]2c3cc4c(cc3[C@@H](O[C@@H]3O[C@@H]5CO[C@@H](C)O[C@H]5[C@H](O)[C@H]3O)[C@H]3COC(=O)[C@H]23)OCO4)cc(OC)c1O` [etoposide, reference compound], the concentration for half-maximal inhibition (IC50) in the data set with HCT116 (colon carcinoma) amounted to 5 ± 2 µM; with MCF-7 (breast carcinoma), 1 ± 0.7 µM; in the data set on H 460 (lung carcinoma), 0.1 ± 0.04 µM.
